Laboratory results reported in patent EP3840748B1, “SUBSTITUTED IMIDAZOLES FOR THE INHIBITION OF TGF-BETA AND METHODS OF TREATMENT” (Clavius Pharmaceuticals, LLC, priority 2018, dated 2020).
pIC50: −log10 of the molar value.

Columns and labels:
[1] = tested on: TGF-beta 1 stimulated SBE-bla HEK 293T; assay: GeneBLAzer beta-lactamase (bla) reporter, TGF-beta 1 stimulated SBE-bla HEK 293T cell-based assay (ThermoFisher SelectScreen); conditions: Homo sapiens; SBE-bla HEK 293T cells; 30 minutes pre-incubation with inhibitor; TGF-beta 1 0.03 nM, 5 hours; inhibitor 10,000nM to 0.316nM; read-out: Cells (SBE_HEK293T) IC50
Description: (§1) Table 2, below, describes the results of assays carried out on some compounds provided by the present disclosure. Exemplified compounds are confirmed to inhibit ALK5 activity in enzyme and cellular assays in the following assay systems conducted by ThermoFisher in Madison, WI according to their commercially available protocols.
ThermoFisher SelectScreen™ Cell-based Pathway Profiling Service GeneBLAzer Beta-lactamase (bla) Reporter Technology - TGF-beta 1 stimulated SBE-bla HEK 293T Cell-based Assay
SBE-bla HEK 293T cells are thawed and re-suspended in Assay Media (OPTI-MEM, 0.5% dialyzed FBS, 0.1 mM NEAA, 1 mM Sodium Pyruvate, 100 U/mL/100 µg/mL Pen/Strep) to a concentration of 625,000 cells/mL. 32 µL of cell suspension (20,000 cells) is added to each well of a 384-well Poly-D-Lysine assay plate. Cells in Assay Media are incubated for 16-24 hours in the plate at 37°C/5% CO2 in a humidified incubator. 4 µL of a 10X serial dilution of ALK5 inhibitors (10x = 100,000-3.16 nM) is added to appropriate wells of the plate and pre-incubated at 37°C/5% CO2 in a humidified incubator with cells for 30 minutes. Final concentration of inhibitor ranged from 10,000nM to 0.316nM. 4 µL of 10X TGF-beta 1 (final concentration of 0.03 nM) is added to wells containing the inhibitors. The plate is incubated for 5 hours at 37°C/5% CO2 in a humidified incubator. 8 µL of 1 µM Substrate Loading Solution is added to each well and the plate is incubated for 2 hours at room temperature before being read on a fluorescence plate reader. Percent inhibition is determined compared to DMSO only control (maximal TGF-beta 1 stimulation) and sigmoidal dose response curve fit yielded IC50 values as indicated in Table 2. TABLE 2: Biological activity assay results

TGFBR1 (ALK5) = biological target: T1, TGFBR1 (ALK5) (Homo sapiens, UniProt P36897); assay: LanthaScreen Eu Kinase Binding Assay TGFBR1 (ALK5) (ThermoFisher SelectScreen); conditions: ALK5 5 nM, Tracer #178 5 nM, Eu-anti-GST antibody 2 nM, 1 hour at room temperature, 1% DMSO; read-out: TβRI (ALK5) Binding IC50
T1 sequence (P36897 34-503): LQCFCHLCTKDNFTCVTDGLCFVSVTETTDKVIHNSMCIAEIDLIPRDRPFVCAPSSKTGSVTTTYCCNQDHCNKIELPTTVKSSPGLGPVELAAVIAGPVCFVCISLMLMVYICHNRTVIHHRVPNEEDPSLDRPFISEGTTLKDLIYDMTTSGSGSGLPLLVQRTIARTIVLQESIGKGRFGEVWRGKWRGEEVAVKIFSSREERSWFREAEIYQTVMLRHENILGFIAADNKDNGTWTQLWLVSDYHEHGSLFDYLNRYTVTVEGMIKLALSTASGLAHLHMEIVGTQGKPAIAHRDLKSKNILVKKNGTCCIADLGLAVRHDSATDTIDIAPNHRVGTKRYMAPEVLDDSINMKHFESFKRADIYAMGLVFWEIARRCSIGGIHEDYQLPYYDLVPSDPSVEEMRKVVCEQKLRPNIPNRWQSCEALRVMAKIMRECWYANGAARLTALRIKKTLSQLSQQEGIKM
Description: as §1
ThermoFisher SelectScreen™ Biochemical Kinase Profiling Service, LanthaScreen™Eu Kinase Binding Assay TGFBR1 (ALK5)
Exemplified compounds are screened in 1% DMSO (final concentration) by 3-fold serial dilutions from 10,000 nM to 0.316 nM or at single concentrations of 10,000, 1000 and 100 nM according to the following protocol. To low volume, white 384-well plates (Greiner Cat#784207) add 160 nL 100x compound in 100% DMSO, 3.84 uL kinase buffer (50 mM HEPES, pH 7.5, 0.01% BRIJ-35, 10 mM MgCl2, 1 mM EGTA), 8 uL 2x kinase/antibody mixture in kinase buffer (final ALK5 concentration of 5 nM; final Eu-anti-GST antibody concentration of 2 nM), 4 uL 4x Tracer #178 in kinase buffer (final concentration of 5 nM). Gently shake the plates for 30 seconds and incubate at room temperature for 1 hour before reading fluorescence on a plate reader. Percent inhibition is determined compared to DMSO only control (maximal ALK5 tracer binding) and sigmoidal dose response curve fit yielded IC50 values as indicated in Table 2.

Structure (SMILES) | pIC50 [1] | pIC50 (TGFBR1 (ALK5))
NC(=O)c1ncnc2ccc(-c3c(-c4ccn(C5CC5)n4)nc4n3CCC4)cc12 [Compound 95, 6-(2-(1-Cyclopropyl-1H-pyrazol-3-yl)-6,7-dihydro-5H-pyrrolo[1,2-a]imidazol-3-yl)quinazoline-4-carboxamide] | 6.82 | 8.05
Oc1ncnc2ccc(-c3c(-c4ccn(C5CC5)n4)nc4n3CCC4)cc12 [Compound 92, 6-(2-(1-Cyclopropyl-1H-pyrazol-3-yl)-6,7-dihydro-5H-pyrrolo[1,2-a]imidazol-3-yl)quinazolin-4-ol] | 7.24 | 7.96
